The source of these data is patent US10556879B2, “Retinoid compound, preparation method therefor, intermediates thereof and application thereof” (SHANGHAI INSTITUTE OF ORGANIC CHEMISTRY, CHINESE ACADEMY OF …, priority 2016, dated 2020).

Entries after “also recorded” stand apart in the source; their conditions may differ. Read-outs that look alike come from different tables or passages of the source.

Data set [1] relates to 3T3 mouse embryonic fibroblast cells. The data set is described as follows: In vitro toxicity on normal cells (proliferation, apoptosis). It counts as cell-based. Conditions: 10 μM. Here is the method: (§1) The 3T3 mouse embryonic fibroblast cells and B16-F1 melanoma cells were used as the model to study in vitro toxicity of WYC-209 and WYC-331 respectively. The effect of compound WYC-209 and WYC-331 on the proliferation of 3T3 mouse embryonic fibroblast cells and B16-F1 melanoma cells were studied at a concentration of 10 μM.

In data set [2] the test system is tumor-repopulating cells of B16-F1 melanoma. The data set is described as follows: Inhibitory activity on proliferation of tumor-repopulating cells (TRCs) of B16-F1 melanoma in 3D fibrin gel. In kind it is cell-based. The conditions noted are these: Mus musculus. Here is the method: B16-F1 Melanoma cells were incubated with 3D fibrin gel medium (90-Pa) for 5 days, and the desired tumor-repopulating cells of melanoma were screened (Nat. Mater. 2012, 11, 734). Subsequently, the culture medium was respectively treated with collagenase and neutral protease II, and the tumor-repopulating cells of B16-F1 melanoma were released, then the obtained repopulating cells were transferred to a freshly prepared medium to be resuspended and maintained at single-cell state. The tumor-repopulating cells of B16-F1 melanoma were inoculated in 3D fibrin gel medium (90-Pa) for 5 days, with 0.1% DMSO as the negative control group, Tazarotene and Bexarotene as the positive control drugs respectively, […] for 5 days. The colony tumor size was measured and calculated, and the inhibition rate of each drug on the tumor-repopulating cells of B16-F1 melanoma was calculated. The results of inhibitory activity of the compound of the present invention on the proliferation of tumor-repopulating cells of B16-F1 melanoma were shown in Table 2 below.

The subject of the next data set is B16-F1 melanoma cells. The data set is described as follows: In vitro effect on B16-F1 melanoma cells (proliferation, apoptosis) in the toxicity study. The conditions noted are these: 10 μM. It counts as cell-based. Here is the method: as §1
Data set [3] deals with tumor-repopulating cells of MDA-MB-231 breast cancer. The data set is described as follows: Inhibition of proliferation of tumor-repopulating cells, colony tumor volume in 3D fibrin gel. It counts as cell-based, human. The conditions noted are these: MDA-MB-231 TRCs. Here is the method: (§2) Therefore, we further studied the inhibitory activity of this compound against tumor-repopulating cells of six other kinds of human tumor, including A549 lung cancer cell, MCF-7 breast cancer cell, MDA-MB-435S melanoma cell, A2780 ovarian cancer cell, Hs-746T gastric cancer cell, MDA-MB-231 breast cancer cell.
(§3) The above cancer cells were incubated with 3D fibrin gel medium (90-Pa) for 5 days, and the desired tumor-repopulating cells were screened. Subsequently, the culture medium was respectively treated with collagenase and neutral protease II, and the tumor-repopulating cells of B16-F1 melanoma were released, then the obtained repopulating cells were transferred to a freshly prepared medium to be resuspended and maintained at single-cell state. The tumor-repopulating cells of individual tumor were inoculated in 3D fibrin gel medium (90-Pa) for 5 days, with 0.1% DMSO as the negative control group (represented by DMSO group in FIGS. 3-8), the drug-free group as vehicle control group (represented by None group in FIGS. 3-8), and the study was performed by beginning administrating on the day 0 and the 3rd day respectively, and the colony tumor volume was measured and calculated.
as §3, with “The above human tumor cells were” for “The above cancer cells were”, “cells of B16-F1 melanoma were inoculated” for “cells of individual tumor were inoculated”, “group in FIG. 9), the drug-free” for “group in FIGS. 3-8), the drug-free”, “measured and calculated, beginning administrating from the 3rd day at a concentration of 0.1 μM, 1.0 μM, and 10 μM respectively, the colony tumor volume was measured and calculated.” for “measured and calculated.”

The test system of data set [4] is tumor-repopulating cells of A2780 ovarian cancer. Described as above. It counts as cell-based, human. Conditions: A2780 TRCs, 10 μM. How it is done: as §2, §3
as §3, with “The above human tumor cells were” for “The above cancer cells were”, “cells of B16-F1 melanoma were inoculated” for “cells of individual tumor were inoculated”, “group in FIG. 9), the drug-free” for “group in FIGS. 3-8), the drug-free”, “measured and calculated, beginning administrating from the 3rd day at a concentration of 0.1 μM, 1.0 μM, and 10 μM respectively, the colony tumor volume was measured and calculated.” for “measured and calculated.”

In data set [5] the test system is subcutaneous implantation tumor of B16-F1 melanoma. Put plainly: Subcutaneous implantation model of B16-F1 melanoma in immunocompetent mice. It counts as in vivo, mice (C57BL/6). The conditions noted are these: for body weight of the mice / dissection of peritoneal/abdominal cavity / toxic side effects: mouse, in vivo. How it is done: A subcutaneous implantation model of B16-F1 melanoma in immunocompetent mice (C57BL/6, female, 6-8 weeks) was established to study the inhibitory activity of compound WYC-103 on the tumor in situ. Firstly, B16-F1 cells were incubated within 3D fibrin gel (90-Pa in gel stiffness) that was immersed in culture medium for 5 days, and the desired tumor-repopulating cells were screened. Subsequently, the culture medium was respectively treated with collagenase and neutral protease II, and the tumor-repopulating cells of B16-F1 melanoma were released, then the obtained repopulating cells were transferred to a freshly prepared medium to be re-suspended and maintained at single-cell state.
Six immunocompetent mice were randomly divided into two groups which were respectively the treatment group and the DMSO negative control group. Mice were subcutaneously injected with 30,000 tumor-repopulating cells of melanoma to establish a subcutaneous implantation model of melanoma. Subsequently, Mice were administered via tail vein injection based on the body weight and the blood volume of the mice. From day 0, mice in the treatment group were administrated with WYC-103 once every 2 days at a blood concentration of 10 μM and fed normally, observing the survival of the mice. […] According to the statistical analysis, the tumor volume in the treatment group was only 50% of the control group (FIG. 12).
This experiment was repeated in order to further confirm the inhibitory activity of WYC-103 on subcutaneous implantation tumor of B16-F1 melanoma. In the present experiment, 18 immunocompetent mice (C57BL/6, female, 6-8 weeks) were randomly divided into three groups which were respectively the treatment group, the positive control group (BMS-453 was used as the positive drug) and the DMSO negative control group. Subsequently, Mice were administered via tail vein injection based on the body weight and the blood volume of the mice. From day 0, mice in the treatment group were administrated with WYC-103 once every 2 days at a blood concentration of 10 μM; mice in the positive control group were administered with BMS-453 (WYC-114) as the positive drug in the same route of administration; mice in the negative control group was administered with 0.1% DMSO in a same route of administration.

For data set [6], the system named is metastatic melanoma in the lung. The data set is described as follows: Metastatic melanoma in the lung model, 3000 tumor-repopulating cells via tail vein (WYC-103). It counts as in vivo. The conditions noted are these: blood concentration 10 μM. From the text: A metastatic melanoma model in the mouse was established to study whether WYC-103 could inhibit metastatic melanoma in the lung thus prevent secondary tumorigenesis. Firstly, 12 normally immunocompetent mice (C57BL/6, female, 6-8 weeks) were randomly selected and injected via the tail vein with 3000 tumor-repopulating cells of melanoma to establish a metastatic melanoma model in the mouse. The model mice were randomly divided into two groups which were respectively the treatment group and the negative control group. The mice were administered with WYC-103 (the treatment group) and DMSO (the negative control group) via tail vein injection once every 2 days at a blood concentration of 10 μM based on the body weight and the blood volume of the mice.

[7] abbreviates: B16-F1, 120 h, 10 μM, incubated 5 days, colony tumor size, read-out: Inhibition rate on TRCs of B16-F1 melanoma at a concentration of 10 μM (%).
Where [8] appears, read: B16-F1, 10 μM (Table 3), read-out: Inhibition rate on TRCs of B16-F1 melanoma at a concentration of 10 μM/%.

Consider `CCOC(=O)c1cnc(C#Cc2ccc3c(c2)C(C)(C)CCC3(C)C)nc1` [WYC-331, ethyl 2-((5,5,8,8-tetramethyl-5,6,7,8-tetrahydronaphth-2-yl)ethynyl)pyrimidin-5-carboxylate], for which, in data set [1], the “effect on proliferation of 3T3 mouse embryonic fibroblast cells” value is on record as “no effect on the growth of 3T3 cell clones” and the “induction of apoptosis of 3T3 mouse embryonic fibroblast cells” value was “did not exhibit significant apoptosis-inducing effect; also recorded: could not induce apoptosis”. Further, in data set [2] (setting [7]), the inhibition at 10 µM was found to be 96%. For the same compound, the IC50 in data set [2] (B16-F1, dose-response curve, colony tumor volume, read-out: IC50 of inhibition on TRCs of B16-F1 melanoma/μM) amounted to 0.017 µM. In addition, the inhibition at 10 µM in data set [2] (setting [8]) amounted to 96%. Further, in the data set with B16-F1 melanoma cells, the “effect on proliferation of B16-F1 melanoma cells” value is listed as “strongly inhibited the proliferation” and the “induction of apoptosis of B16-F1 melanoma cells” value is on record as “did not exhibit significant apoptosis-inducing effect”. Further, the “growth trend of colony tumor” value in data set [3] is on record as “reverse the growth trend of colony tumor”. Moreover, the “volume of colony tumor relative to None group” value in data set [3] (10 μM) was 10-15%. The “volume of colony tumor relative to None group” value in data set [4] is 10-15%.

As to `CCOC(=O)c1ccc(C#Cc2ccc3c(c2)C(C)(C)CCS3)cc1O` [WYC-103, ethyl 4-((4,4-dimethylthiochroman-6-yl)ethynyl)-2-hydroxybenzoate], the “tumor volume in the treatment group relative to the control group” value in data set [5] (first experiment, after 19 days, tail vein injection every 2 days, blood concentration 10 μM) worked out at 50%. Further, in data set [5], the “body weight of the mice” value is “stable and balanced”; the “dissection of peritoneal/abdominal cavity” value is recorded as “No abnormalities”; the toxic side effects result is recorded as “no obvious toxic side effects”. Also, the “tumor volume in the treatment group relative to the negative control group” value in data set [5] (repeated experiment, 26th day, tail vein injection every 2 days, blood concentration 10 μM) is 50%. The compound also had a mice died in data set [5] (repeated experiment, on the 26th day) of 50%. In addition, the “average lung weight relative to the negative control group” value in data set [6] is reported as “⅓”. In addition, the toxic side effects entry in data set [6] (whole experiment) is on record as “no obvious toxic side effects”. For the same compound, the “efficiency of preventing the occurrence of metastatic melanoma in the lung” value in data set [6] (tail vein injection every 2 days) is listed as 100%. Further, in data set [2] (setting [7]), the inhibition at 10 µM was determined as 86.8%. Further, the inhibition at 10 µM in data set [2] (setting [8]) was 86.8%.

Take `CC1(C)CC=C(c2ccccc2)c2cc(/C=C/c3ccc(C(=O)O)cc3)ccc21` [BMS-453, reference compound]: in data set [5], the “body weight of the mice” value is listed as “significantly reduced”, the “dissection of peritoneal/abdominal cavity” value is recorded as “a large number of abnormal foamy structure appeared in the peritoneal cavity” and the toxic side effects result is recorded as “a greater toxic side effect”. For the same compound, the mice died entry in data set [5] (repeated experiment, on the 20th day) is reported as “all the mice in the positive control group died”.

As to `CCOC(=O)c1ccc(C#Cc2ccc3c(c2)C(C)(C)CCS3)cc1Cl` [WYC-325, ethyl 2-chloro-4-((4,4-dimethylthiochroman-6-yl)ethynyl)benzoate], in data set [2] (setting [7]), the inhibition at 10 µM turned out to be 74.2%.

In the case of `CCOC(=O)c1ccc(C#Cc2ccc3c(c2)C(C)(C)CCC3(C)C)cn1` [WYC-341, ethyl 5-((5,5,8,8-tetramethyl-5,6,7,8-tetrahydronaphth-2-yl)ethynyl)pyridin-2-carboxylate], in data set [2] (setting [7]), the inhibition at 10 µM worked out at 87%.

For the compound `CCOC(=O)c1ccc(C#Cc2ccc3c(c2)C(C)(C)CCS3)c(NC(C)=O)c1` [WYC-317, ethyl 3-acetamido-4-((4,4-dimethylthiochroman-6-yl)ethynyl)benzoate], in data set [2] (setting [7]), the inhibition at 10 µM stood at 86.4%.

Take `CC1(C)CCSc2ccc(C#Cc3cnc(C#N)nc3)cc21` [WYC-202, 2-cyano-5-((4,4-dimethylthiochroman-6-yl)ethynyl)pyrimidine]: in data set [2] (setting [7]), the inhibition at 10 µM amounted to 85.3%.

`CCOC(=O)c1cnc(C#Cc2ccc3c(c2)C(C)(C)CC[S+]3[O-])cn1` (stereo not shown) [WYC-324, ethyl 5-((4,4-dimethyl-1-oxothiochroman-6-yl)ethynyl)pyrazin-2-carboxylate]: the inhibition at 10 µM in data set [2] (setting [7]) came out at 85.1%.

For the compound `CCOC(=O)c1ccc(C#Cc2ccc3c(c2)C(C)(C)CCS3)cc1F` [WYC-303, ethyl 2-fluoro-4-((4,4-dimethylthiochroman-6-yl)ethynyl)benzoate], the inhibition at 10 µM in data set [2] (setting [7]) is 71.1%.

As for `CCOC(=O)c1ccc(C#Cc2ccc3c(c2)C(C)(C)CCS3)cc1NC(C)=O` [WYC-217, ethyl 2-acetamido-4-((4,4-dimethylthiochroman-6-yl)ethynyl)benzoate], the inhibition at 10 µM in data set [2] (setting [7]) worked out at 90.3%.

With `COC(=O)c1ccc(C#Cc2ccc3c(c2)C(C)(C)CC[S+]3[O-])c(NC(C)=O)c1` (stereo not shown) [WYC-321, methyl 3-acetamido-4-((4,4-dimethyl-1-oxothiochroman-6-yl)ethynyl)benzoate], the inhibition at 10 µM in data set [2] (setting [7]) was determined as 78.2%.

`CC(=O)Nc1cc(C#Cc2ccc3c(c2)C(C)(C)CCC3(C)C)ccc1C(=O)O` [WYC-336, 2-acetyl amino-4-((5,5,8,8-tetramethyl-5,6,7,8-tetrahydronaphth-2-yl)ethynyl)benzoic Acid]: the inhibition at 10 µM in data set [2] (setting [7]) was 86.7%.

Consider `CCOC(=O)c1cnc(C#Cc2ccc3c(c2)C(C)(C)CCS3)nc1` [WYC-203, ethyl 2-((4,4-dimethylthiochroman-6-yl)ethynyl)pyrimidin-5-carboxylate], for which the inhibition at 10 µM in data set [2] (setting [7]) was 90.5%.

On to `CCOC(=O)c1ccc(C#Cc2ccc3c(c2)C(C)(C)CCS3)nc1` [Tazarotene, reference compound], for which the inhibition at 10 µM in data set [2] (setting [7]) turned out to be 67.6%.

Take `COC(=O)c1ccc(C#Cc2ccc3c(c2)C(C)(C)CCC3(C)C)c(O)c1` [WYC-332, methyl 3-hydroxy-4-((5,5,8,8-tetramethyl-5,6,7,8-tetrahydronaphth-2-yl)ethynyl)benzoate]: in data set [2] (setting [7]), the inhibition at 10 µM came to 55.9%.
